The source of these data is EP0504254B1, “THE USE OF GIBBERELLINS FOR THE MANUFACTURE OF A MEDICAMENT FOR THE TREATMENT OF PROSTATITIS” (ODEN, Per, priority 1989, dated 1991).

The subject of test [1] is male adult uncastrated rats. Kind of test: Dihydrotestosterone-induced hypertrophic growth of the prostatic gland in rats. The class given is in vivo. The conditions noted are these: daily 50 mg dihydrotestosterone alone for three months. As to the method:
The weight of the prostate was 814 mg, which was equivalent to about 0.34 % of the total body weight. When the rats were simultaneously given a daily dosis of 100 µg of gibberellins GA₂₀ and GA₃₀, an increase in prostate weight was not detected. The weight of the prostate was in this case 582 mg, which was equivalent to 0.20 % of the total body weight.

The subject of test [2] is castrated rats. The conditions noted are these: C.R. Séances Soc. Biol. Filiales 163 (1969); cited from earlier work.

As for `C[C@]12CCC(=O)C[C@@H]1CC[C@@H]1[C@@H]2CC[C@]2(C)[C@@H](O)CC[C@@H]12` [dihydrotestosterone], in test [1], the “weight of the prostate” value was 814 mg and the “weight of the prostate, equivalent % of the total body weight” value was “about 0.34%”.

With `C=C1C[C@]23C[C@@]1(O)CC[C@H]2[C@@]12C=C[C@H](O)[C@@](C)(C(=O)O1)[C@H]2[C@@H]3C(=O)O` [gibberellic acid], the prostate weight result in test [2] is reported as “restitution of prostate weight”.
